# Measurements published in BindingDB's records for patent US20240190824 (Ono Pharmaceutical Co., 2024).
# Experiments:
# [1] = biological target: T1, Potassium channel subfamily K member 2 (Homo sapiens, UniProt O95069); assay: Thallium flux assay
# T1 sequence (O95069 whole entry): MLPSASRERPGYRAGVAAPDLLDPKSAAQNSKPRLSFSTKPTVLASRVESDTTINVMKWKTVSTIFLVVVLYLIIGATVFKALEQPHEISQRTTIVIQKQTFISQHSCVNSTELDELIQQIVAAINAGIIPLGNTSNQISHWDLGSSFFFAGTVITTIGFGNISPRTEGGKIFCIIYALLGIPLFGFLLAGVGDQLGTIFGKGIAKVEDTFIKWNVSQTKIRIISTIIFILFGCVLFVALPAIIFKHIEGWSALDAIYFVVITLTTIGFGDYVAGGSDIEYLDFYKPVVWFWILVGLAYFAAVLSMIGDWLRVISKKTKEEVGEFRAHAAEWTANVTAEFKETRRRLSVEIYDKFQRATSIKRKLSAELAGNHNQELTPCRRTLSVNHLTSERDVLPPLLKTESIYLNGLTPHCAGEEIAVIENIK
# [2] = biological target: T1, Potassium channel subfamily K member 2; assay: TREK-1 Manual Patch Clamp (hMPC) assay
# Description: TBDCHO-K1 cells stably expressing human TREK-1 or HEK293 cells stably expressing human TREK-2 are plated on glass coverslips, and voltage clamped in the whole-cell configuration of the patch clamp technique. Cells were voltage clamped at a holding potential of −80 mV and the stepped to 0 mV for 500 msec. The voltage was subsequently ramped from −120 mV to +80 mV over a 500 msec duration. This step-ramp protocol was repeated every 10 sec.
SMILES,IC50 [1] [nM],IC50 [2] [nM]
"Cc1cc(C#Cc2cccc(F)c2)nc(C)c1NC(=O)c1cc(NC(=O)OC(C)(C)C)ccc1Cl [US20240190824, Compound 11]",410,32
"Cc1cc(C#Cc2ccccc2)cc(F)c1NC(=O)c1cc(NC(=O)OC(C)(C)C)ccc1Cl [US20240190824, Compound 29]",210,–
"CC(C)(C)OC(=O)Nc1ccc(Cl)c(C(=O)Nc2c(F)cc(C#Cc3ccccc3)cc2F)c1 [US20240190824, Compound 30]",220,–
"Cc1cc(COc2ccc(Cl)c(C(=O)Nc3ncc(C#Cc4ccccc4)cc3C)c2)on1 [US20240190824, Compound 83]",390,–
"Cc1cc(C#Cc2ccccc2)cnc1NC(=O)c1cc(OCC2CCOC2)ccc1Cl (stereo unspecified) [US20240190824, Compound 85]",490,–
